The values below are quoted from earlier work in US20230405125A1, “TREATMENT OF RECURRENT GIOBLASTOMA WITH PERILLYL ALCOHOL” (NeOnc Technologies, Inc., priority 2020, published 2023).

Data set [1] has as its system patients with different solid tumors. As to conditions: oral POH.
The test system of data set [2] is patients with recurrent malignant gliomas.
In data set [3] the target is farnesyl-protein transferase (FPT) (Homo sapiens, UniProt P49354+P49356).
Setting [4] is: Reardon et al. (CheckMate 143) 2020.

Entries after “also recorded” stand apart in the source; their conditions may differ. Like-named read-outs stand apart in the source and are kept apart here.

As to `CCOP(=O)(OCC)C(C)NC(=O)N(CCCl)N=O` (stereo not drawn) [Fotemustine], in the data set on recurrent GBM patients (human, in vivo), the OS-6 is 73%, the OS-9 is 47%, the OS-12 is on record as 40% and the “median OS” value is listed as 8.7 months.

As to `O=NN(CCCl)C(=O)NC1CCCCC1` [Lomustine], in the data set on recurrent GBM patients (Batchelor et al. 2013), the OS-6 is given as 70%, the OS-9 was 52%, the OS-12 is 41% and the “median OS” value was 9.8 months.

As for `C=C(C)[C@@H]1CC=C(CO)CC1` [POH], the anti-cancer efficacy entry in data set [1] is “limited”. For the same compound, the tolerability result in data set [1] was “Gastrointestinal toxicity proved dose-limiting”; in data set [1] (listed as perillyl alcohol), “poorly tolerated”. In addition, in data set [2] (intranasal commercial grade POH with solvent cocktail, 150 patients), the “six month progression free survival rate” value was 50%. For the same compound, the radiographic response entry in data set [2] (intranasal commercial-grade POH) was “Radiographic regression”. In data set [2] (intranasal commercial-grade POH, four times daily), the “tolerability / adverse effects” value is reported as “minimal side effect; also recorded: good tolerance; also recorded: no severe adverse effects”. The “effect on FPT enzymatic activity” value in data set [3] was “inhibit”.

Take “Bevacizumab: humanized monoclonal antibody against VEGF (vascular endothelial growth factor)”: in the data set with recurrent GBM patients (Field et al. (CABARET) 2015), the OS-6 was 61%, the OS-9 is reported as 39%, the OS-12 is 24% and the “median OS” value is on record as 7.5 months. In addition, in the data set on recurrent GBM patients (Heiland et al. 2016), the OS-6 was 18%, the OS-12 is on record as 10% and the “median OS” value is 4.1 months. Also, in the data set on recurrent GBM patients (Taal et al. (BELOB) 2014), the OS-6 is 64%, the OS-9 is listed as 38%, the OS-12 is listed as 26% and the “median OS” value is listed as 8.0 months.

As for “Nivolumab: fully human monoclonal antibody targeting the programmed death-1 (PD-1) immune checkpoint receptor”, in the data set on recurrent GBM patients (setting [4]), the OS-6 was 72%, the OS-9 was 52%, the OS-12 was 42% and the “median OS” value is 9.8 months.
